Measured values published in US8957129B2, “Aqueous coatings and paints incorporating one or more antimicrobial biosurfactants and methods for using same” (priority 2012, dated 2015).
≈ marks a conversion by molar mass, not a printed value. Read-outs that look alike come from different tables or passages of the source.

Tests used:
[1] = test system: bacteria; assay: Challenge test of combinations of Rhamnolipids with Isothiazolinones in flat paint; assay type: cell-based; conditions: levels: RL 250 ppm, CMIT/MIT 5 ppm, MIT 25 ppm, BIT 50 ppm
Protocol: (§1) A second batch of flat paint formulation was prepared without any surfactants. Then Rhamnolipids (RL) were post-added to this formulation. The formulation was then subjected to an initial screen challenge test using 250 to 2000 ppm RL with mixed populations of E. coli and Pseudomonas aeruginosa.
(§2) Using the same paints, a biocide at lower use level was combined with Rhamnolipid (RL) at a minimum use of 250 ppm.

[2] = test system: fungi; assay: as above; assay type: cell-based; conditions: levels: RL 250 ppm, CMIT/MIT 5 ppm, MIT 25 ppm, BIT 50 ppm
Protocol: as §1, §2

[3] = test system: Bacillus cereus; assay: MIC determination in broth media, two fold dilution, microtiter plates; assay type: cell-based; conditions: read-out: Minimum Inhibitory Concentration (MIC), alone (QA/QB)
[4] = test system: P. aeruginosa; assay: as above; assay type: cell-based, Pseudomonas aeruginosa; conditions: for MIC: Pseudomonas aeruginosa
[5] = test system: B. cepacia; assay: as above; assay type: cell-based, Burkhlderia cepacia; conditions: for MIC: Burkholderia cepacia, read-out: Minimum Inhibitory Concentration (MIC), alone (QA/QB)
[6] = test system: S. aureus; assay: as above; assay type: cell-based; conditions: Staphylococcus aureus, read-out: Minimum Inhibitory Concentration (MIC), alone (QA/QB)
[7] = test system: Candida albicans; assay: as above; assay type: cell-based; conditions: read-out: Minimum Inhibitory Concentration (MIC), alone (QA/QB)
[8] = test system: Aspergillus niger; assay: as above; assay type: cell-based
[9] = test system: E. coli; assay: as above; assay type: cell-based; conditions: Escherichia coli, read-out: Minimum Inhibitory Concentration (MIC), alone (QA/QB), E. coli, substance alone
[10] = B. cepacia, substance alone, broth

O=c1[nH]sc2ccccc12 [BIT, Benz Isothiazolinone]
Day 1 Bacteria growth [1]: −
Day 2 Bacteria growth [1]: −
Day 5 Bacteria growth [1]: −
Day 1 Fungi growth [2]: +
Day 2 Fungi growth [2]: +
Day 5 Fungi growth [2]: +
MIC ([3]; substance alone, broth): 25 µg/mL (≈ 165 µM)
MIC ([4]; P. aeruginosa, substance alone, read-out: Minimum Inhibitory Concentration (MIC), alone (QA/QB)): 25 µg/mL (≈ 165 µM)
Minimum Inhibitory Concentration (MIC), alone (QA/QB) [5, 10]: 25 ppm
MIC [5, 10]: 50 µg/mL (≈ 331 µM)
MIC ([6]; S. aureus, substance alone, broth): 25 µg/mL (≈ 165 µM)
MIC ([7]; substance alone, broth): 25 µg/mL (≈ 165 µM)
MIC ([8]; substance alone, read-out: Minimum Inhibitory Concentration (MIC), alone (QA/QB)): 50 µg/mL (≈ 331 µM)

Cn1sccc1=O [MIT, Methyl Isothiazolinone]
Day 1 Bacteria growth [1]: −
Day 2 Bacteria growth [1]: −
Day 5 Bacteria growth [1]: −
Day 1 Fungi growth [2]: +
Day 2 Fungi growth [2]: +
Day 5 Fungi growth [2]: −
MIC [3]: 25 µg/mL (≈ 217 µM)
Minimum Inhibitory Concentration (MIC), alone (QA/QB) ([4]; P. aeruginosa, substance alone): 25 ppm
MIC ([4]; read-out: Minimum Inhibitory Concentration (MIC), alone (QA/QB), P. aeruginosa, substance alone): 12.5 µg/mL (≈ 109 µM)
MIC [5]: 25 µg/mL (≈ 217 µM)
MIC [6]: 25 µg/mL (≈ 217 µM)
MIC [7]: 100 µg/mL (≈ 868 µM)
MIC [9]: ~25 µg/mL (≈ 217 µM)
MIC ([8]; read-out: Minimum Inhibitory Concentration (MIC), alone (QA/QB), Aspergillus niger, substance alone): > 100 µg/mL
Minimum Inhibitory Concentration (MIC), alone (QA/QB) ([8]; substance alone): 100 ppm
